Experimental data taken from US20230330109A1, “COMPOUND FOR PREVENTING AND TREATING LIVER DISEASES AND PHARMACEUTICAL USE THEREOF” (CHENGDU BIOBEL COMPANY LIMITED, priority 2020, published 2023).
Counter-ions that a name gives are not always drawn.

What was measured:
Type in all cases: in vivo
male C57BL/6N mice [1] = experiment: Serum biochemical indexes in MCD diet FLD mice (Experimental Example 1); set-up: AST / ALT / ALP: unit not given here; conditions: for decrease rate of ALP / decrease rate of ALT / decrease rate of AST: compared with the model group, dosages as in Table 1; for ALP / ALT / AST: serum, MCD diet mice, drug in diet for 20 days, dosage 300 mg/kg/d (I-1, HTD1801) or 150 mg/kg/d (nor-UDCA, berberine hydrochloride)
Text: (§1) 48 male C57BL/6N mice (8-week-old) were chosen, in which 8 mice were randomly divided into the blank group, fed with normal diet, while the other 40 mice were all subjected to establishing models. There was an adaptation period of 6 days before modeling. Then, mice were fed with the mixture of MCD and MCS (TROPHIC Animal Feed High-Tech Co. Ltd, Nantong, Jiangsu, China, TP3005GS, high-fat feed) in a ratio of 1:2, 1:1 and 2:1, and each ratio of diet was given to the mice for two days in the order of 1:2, 1:1 and 2:1. After that, mice were given MCD feed for 28 days (TROPHIC Animal Feed High-Tech Co. Ltd, Nantong, Jiangsu, China, TP3005G, methionine- and choline-deficient diet). On the 28th day, mice were randomly divided into five groups, namely model group, compound I-1 group, norUDCA group, berberine hydrochloride group, and HTD1801 group, eight mice for each group. After grouping, each treatment group was further fed customized MCD diet containing drugs for 20 days, while the model group was fed the same diet as the previous. All groups were fed the isocaloric diet. After the last administration on the 21st day, the mice were fasted for 16 h (but free access to water) and weighed. Then, blood was taken from the femoral artery and centrifuged to separate the serum, which was stored at low temperature of −30° C., ready for testing the biochemical indexes of the serum. In addition, the liver was taken, and two pieces of left lobe were taken for each mouse, which were placed in 10% neutral formalin solution, respectively. After treatment, liver histopathological examination was performed.

male Wistar rats = experiment: Thioacetamide-induced hepatic fibrosis/cirrhosis in rats, Sirius Red fibrosis area; conditions: for decrease rate of fibrosis area: compared with the rat cirrhosis model group, dosages as in Table 4; for Hepatic fibrosis area (%): thioacetamide rats, oral, Sirius Red, dosage 160 mg/kg (I-1, HTD1801) or 80 mg/kg (nor-UDCA, berberine hydrochloride)
Text: 60 male Wistar rats (weighing 180-220 g) were divided into 6 groups, with 10 rats in each group, and the rats were provided by Chengdu Dossy Experimental Animal Co., Ltd. In the experiment, the compound of the present invention and the positive control drug nor-UDCA were first ground in a proper amount of Tween, and then diluted to the pre-determined concentration with 0.5% carboxymethyl cellulose (CMC) sodium.
The rat liver fibrosis model was established by inducing with thioacetamide. Rats were intraperitoneally injected with thioacetamide at a dose of 200 mg/kg, three times a week, for 12 weeks. Four weeks after induction with thioacetamide, the compound of the present invention was orally administered to the test groups, while the blank group and the model group were given the same amount of CMC suspension. Among them, every morning, rats in each test group were given 160 mg/kg of compound I-1, 80 mg/kg of nor-UDCA, 80 mg/kg of berberine hydrochloride, and 160 mg/kg of positive control HTD1801. After experiment, all rats were euthanized, and their livers were taken out.
The liver tissue was fixed with 10% formaldehyde solution and embedded in paraffin. The fixed liver tissue was sectioned with a thickness of about […], and then stained with Hematoxylin-Eosin (HE) and Sirius Red. Sirius Red staining was used for morphological analysis and to determine the percentage of liver tissue affected by its fibrosis. The image of the section was collected by using the microscopic imaging system. In order to make the results more accurate, 15 positive visual fields of Sirius Red staining were randomly selected from each slice to calculate the proportion of liver fibrosis area, which was used in statistical analysis.

male C57BL/6N mice [2] = experiment: Hepatic fat staining in MCD diet FLD mice (Experimental Example 1); conditions: dosage 300 mg/kg (I-1, HTD1801) or 150 mg/kg (nor-UDCA, berberine hydrochloride)
Text: as §1

male C57BL/6N mice [3] = experiment: Liver histopathological examination in MCD diet FLD mice (Experimental Example 1); set-up: scale not given here; conditions: liver histopathology, dosage 300 mg/kg (I-1, HTD1801) or 150 mg/kg (nor-UDCA, berberine hydrochloride)
Text: as §1

Structure (SMILES) | decrease rate of ALP (male C57BL/6N mice [1]) [%] | decrease rate of ALT (male C57BL/6N mice [1]) [%] | decrease rate of AST (male C57BL/6N mice [1]) [%] | ALP (male C57BL/6N mice [1]) | ALT (male C57BL/6N mice [1]) | AST (male C57BL/6N mice [1]) | decrease rate of fibrosis area (male Wistar rats) [%] | Hepatic fibrosis area (%) (male Wistar rats) | Hepatic fat staining Scores (male C57BL/6N mice [2]) | Score Edema (male C57BL/6N mice [3]) | Score Inflammation cell infiltration (male C57BL/6N mice [3]) | Score Necrosis (male C57BL/6N mice [3]) | Score Steatosis (male C57BL/6N mice [3])
COc1ccc2cc3[n+](cc2c1OC)CCc1cc2c(cc1-3)OCO2 [Berberine hydrochloride, berberine hydrochloride] | 15.10 | 12.09 | 1.86 | 193.4 ± 32.9 | 942.4 ± 64.5 | 768.4 ± 38.1 | 15.17 | 15.14 ± 3.67 | 1.9 | 1.8 | 1.9 | 2.1 | 2.2
COc1ccc2cc3[n+](cc2c1OC)CCc1cc2c(cc1-3)OCO2.C[C@H](CCC(=O)[O-])[C@H]1CC[C@H]2[C@@H]3[C@@H](O)C[C@@H]4C[C@H](O)CC[C@]4(C)[C@H]3CC[C@]12C [HTD1801] |  |  |  | 188.8 ± 21.3 | 303.0 ± 99.1 | 409.9 ± 51.7 |  | 9.39 ± 1.45 | 1.1 | 0.7 | 1.3 | 0.8 | 1.3
C[C@H](CC(=O)O)[C@H]1CC[C@H]2[C@@H]3[C@@H](O)C[C@@H]4C[C@H](O)CC[C@]4(C)[C@H]3CC[C@]12C [nor-UDCA, norursodeoxycholic acid] | 12.95 | 21.82 | 20.67 | 198.3 ± 94.5 | 761.8 ± 374.2 | 683.4 ± 253.7 | 6.18 | 16.79 ± 5.48 | 1.7 | 1.6 | 2.1 | 2.0 | 2.5
